Active and inactive are the calls of the source. The rule behind the calls is not given here.
system: NCI60; experiment: Antitumor activity against human NCI60 cells at 1 uM; format: functional, cell-based

**Q.** `COc1ccc(C2Nc3nc(SC)[nH]c(=O)c3NC3=C2C(=O)c2ccccc23)cc1` (stereo not given) was tested. Which Activity did it give?
**A.** inactive

**Q.** Which Activity does the source give for `COc1ccc(C2Nc3nc(SC)n(C)c(=O)c3NC3=C2C(=O)c2ccccc23)cc1` (stereo not given) here?
**A.** inactive

**Q.** How did the Activity turn out when `COc1nc2c(c(=O)n1C)NC1=C(C(=O)c3ccccc31)C(c1ccccc1)N2` (stereo not given) was run?
**A.** inactive

**Q.** For `COc1ccc(C2Nc3nc(OC)n(C)c(=O)c3NC3=C2C(=O)c2ccccc23)cc1` (stereo not given), which Activity is on record?
**A.** inactive

**Q.** Which Activity does the source give for `CSc1nc2c(c(=O)n1C)NC1=C(C(=O)c3ccccc31)C(c1ccccc1)N2` (stereo not given) here?
**A.** inactive
